Measured values taken from US20200253922A1, “METHODS FOR NON-[…] ADMINISTRATION OF CANNABINOIDS USING SOFT MIST […]” (Molecular Infusions, LLC, priority 2019, published 2020).
Read-outs that look alike come from different tables or passages of the source.

Tests used:
[1] = Solubility of Δ9-THC and CBD in a solution of ethanol and saline at room temperature
Protocol: FIG. 5 is a photograph of 2% w/w Δ9-THC and 2% w/w CBD in solutions of 10%, 20%, 30%, 40% and 50% (w/w) saline in ethanol. Δ9-THC and CBD were soluble in solutions of up to 30% and 40% (w/w) saline, respectively.
As shown in FIG. 5 the solubility of Δ9-THC and CBD in a solution of ethanol and saline was investigated. […] A 2% w/w solution of CBD was prepared at room temperature in solutions of 10%, 20%, 30%, 40%, or 50% (w/w) saline in ethanol. 2% w/w CBD was soluble at room temperature in ethanol solutions of up to 40% saline. In a separate experiment, the absolute solubility of Δ9-THC in ethanol solutions containing 30%w/w saline was determined to be ˜8%w/w (data not shown).

[2] = Terpene solubility assessment in base formulation of 10% Saline, 20% Water, 70% Ethanol; assay type: physicochemical; conditions: for Visual Observation: mixed overnight at room temperature
Protocol: The base formulation was prepared in bulk and 15 g aliquots were transferred to 22 ml scintillation vials. Pure, botanically derived terpenes were purchased from commercial sources.

[3] = acidic form; cited from earlier work
patients = conditions: aerosol formulation; cited from earlier work
asthmatic patients = conditions: metered dose inhaler, cited from earlier work
subjects = conditions: 5 mg dose via pMDI; cited from earlier work
Volunteers = assay: User feedback on tolerability of Δ9-THC distillate in ethanol delivered via […]; assay type: in vivo, human; conditions: in 200 proof ethanol, RESPIMAT
From the text: Volunteers reported that 200 proof ethanol (placebo) delivered using the […]® device as non-irritating. It was observed that the cannabinoid, Δ9-THC in the ethanol solution, induced irritation that was dose dependent as shown in Table 1 below:
The irritation was caused by cannabinoid deposition at mucosal membranes in the throat and upper airways. The lung deposition profile is affected by multiple factor including FPF as well as user inhalation technique. For example, it has been shown that the timing of inhalation and actuation as well as the posture of the user's head can have an impact on lung deposition. It is also important to note that in vitro impactor studies commonly underestimate dose deposition in the throat and overestimate the dose deposited in the lungs (Wei et al. (2018), Journal of Aerosol Medicine and Pulmonary Drug Delivery 31(0): 1-14).

[4] = Fine particle fraction by Fast Screening Impactor, Respimat device, 28.3 L/min; assay type: physicochemical
From the text: An abbreviated impactor set-up, Copley Scientific's ‘Fast Screening Impactor’ (FSI), was used to determine the FPF within liquid aerosols (Mitchell et al. AAPS PharmSciTech. 2009;10(1):252-7). The FSI consisted of the universal induction port (UIP), course fraction collector (pre-separator and insert with a 5 μm diameter cut-off @ 28.3 L/min), and fine particle fraction collector consisting of a holder and glass fiber filter. The system was assembled along with a Copley LC5 pump. The flow rate was set by attaching a flow meter to the inlet of the induction port and adjusting the flow control valve on the LC5 vacuum pump until the flow rate through the system was 28.3 L/min +/−5%. Measurements were performed under ambient laboratory conditions (˜60% RH, 72° F.). The Respimat device was primed and attached to the UIP using a mouthpiece adapter. With the vacuum pump running, the device was actuated followed by a 30 second hold before turning off the vacuum pump. The Respimat device was re-primed and another dose was collected in the FSI. To determine the amount of cannabinoids deposited in each stage, the FSI was dismantled and each stage was extracted with 10 ml of methanol. Samples were diluted and HPLC performed to quantify the mass of cannabinoids deposited in the USP throat, coarse fraction collector, and fine particle fraction collector.

healthy volunteers = conditions: doses greater than 2 mg, PARI nebulizer, eight healthy volunteers, all patients; cited from earlier work

C=C(C)[C@@H]1CCC(C)=C[C@H]1c1c(O)cc(CCCCC)cc1O [CBD, Cannabidiol]
observation of 2% w/w solution ([1]; 50% (w/w) saline solution): precipitate

CC12CCC(CC1)C(C)(C)O2 [Eucalyptol]
Visual Observation ([2]; Target Concentration 0.06% w/w): Clear, colorless | Visual Observation ([2]; Target Concentration 0.24% w/w): Hazy, not fully | Visual Observation ([2]; Target Concentration […] w/w): Clear, colorless

C=CC(C)(O)CCC=C(C)C (stereo not shown) [Linalool]
Visual Observation ([2]; Target Concentration 0.06% w/w): Clear, colorless | Visual Observation ([2]; Target Concentration 0.24% w/w): Hazy, not fully | Visual Observation ([2]; Target Concentration […] w/w): Clear, colorless

CC1=CCC(=C(C)C)CC1 [Terpinolene]
Visual Observation ([2]; Target Concentration 0.06% w/w): Clear, colorless | Visual Observation ([2]; Target Concentration 0.24% w/w): Hazy, not fully | Visual Observation ([2]; Target Concentration […] w/w): Clear, colorless

O=C1NS(=O)(=O)c2ccccc21 [saccharin]
pKa [3]: ~1.9

CCCCCc1cc(O)c2c(c1)OC(C)(C)C1CC=C(C)CC21 (stereo not shown) [Δ8-THC, delta-8-tetrahydrocannabinol]
cough reaction (patients): causing patients to cough

CCCCCc1cc(O)c2c(c1)OC(C)(C)[C@@H]1CCC(C)=C[C@@H]21 [Δ9-THC, Delta-9-tetrahydrocannabinol]
tolerability of aerosol delivery to the lungs (asthmatic patients; 0.2 mg): tolerable | tolerability of aerosol delivery to the lungs (asthmatic patients; doses higher than 0.2 mg): irritating and induced coughing | subjects with side effects including cough and/or chest discomfort (subjects): 3 out of 11 | User experience (Volunteers; dose 0.35 mg): Most tolerable: Cough may occur, mild irritation of | User experience (Volunteers; dose 0.6 mg): Harsh: Mild cough with mild throat/upper airway | User experience (Volunteers; dose 1 mg): Harsh: Coughing with throat/upper airway irritation | User experience (Volunteers; dose 2 mg): Extremely harsh: Coughing with throat/upper airway | % dose in FPF ([4]; dose 0.35 mg): 76% | % dose in FPF ([4]; dose 0.6 mg): 76% | % dose in FPF ([4]; dose 1 mg): 77% | % dose in FPF ([4]; dose 2 mg): 78% | saline content of ethanol solution up to which 2% w/w is soluble ([1]; 2% w/w, room temperature, 10-50% (w/w) saline in ethanol tested): up to 30 % (w/w) saline | observation of 2% w/w solution ([1]; 40% and 50% (w/w) saline solutions): form a separate liquid phase (oiling out) | absolute solubility ([1]; ethanol solutions containing 30%w/w saline, data not shown): ~8 %w/w | irritation reported after inhalation, compared to a placebo formulation (healthy volunteers): significant irritation of the throat and upper respiratory tract

C=C1CC/C=C(\C)CC[C@@H]2[C@@H]1CC2(C)C [β-caryophyllene]
Visual Observation ([2]; Target Concentration 0.06% w/w): Clear, colorless | Visual Observation ([2]; Target Concentration 0.24% w/w): Hazy, not fully | Visual Observation ([2]; Target Concentration […] w/w): Clear, colorless

C=CC(=C)CCC=C(C)C [β-myrcene]
solubility at the lowest percentage tested ([2]; 0.06% w/w): not soluble | Visual Observation ([2]; Target Concentration 0.06% w/w): Hazy, not fully | Visual Observation ([2]; Target Concentration 0.24% w/w): Hazy, not fully | Visual Observation ([2]; Target Concentration […] w/w): Hazy, not fully
